Measurements taken from patent publication US6541193B2, “Screening the activity of drugs for central nervous system (CNS)” (Council of Scientific & Industrial Research, priority 2001, dated 2003).

System: Sh^5eag^1 mutant flies
Assay: Recovery time from diethyl ether anesthesia in flies fed drug in food
Format: in vivo, Drosophila melanogaster
Settings: Sh^5eag^1 males
Protocol: Standard Drosophila manipulation methods were followed. Cultures were grown on a medium containing maize powder, sugar, yeast and Nipagin. Flies were maintained and further manipulated at room temperature. Experimental conditions were kept identical. The double mutant Sh^5eag^1 was generated using standard methods of Drosophila genetics.
Equal number of Sh^5eag^1 males, varying in age between 6-9 days, were treated in 25×100 mm glass vials with either normal food (NF) or food containing 1 mg/ml of phenobarbital sodium (PS; NF+PS) for 5 days. Twenty males were treated in each vial. Flies were first anesthesized with ether and healthy looking individuals shifted to 10 empty vials in such a way that each vial received two flies, one from each treatment. Before shifting, flies from one of the two treatments were marked on their wings for the purpose of identification. Flies were allowed to recover fully. After an hour, each fly pair was subjected to the following test one by one. The two flies, inside a vial with 800 mg of cotton plug, were simultaneously anesthetized by pouring 0.2 ml of diethyl ether on to the plug. After about 1.5 min, during which the vial was gently shaken continuously so that the flies remained at the bottom throughout, the two individuals were immediately shifted to two fresh empty vials. Time at this point was considered 0 min. […]

CCC1(c2ccccc2)C(=O)NC(=O)NC1=O [PS, phenobarbital sodium]
effect on recovery from ether anesthesia (1 mg/ml in food for 5 days, vs normal food): delays recovery from ether anesthesia | recovery time (time to first stand up on legs after etherisation) (food containing 1 mg/ml for 5 days, diethyl ether anesthesia, NF control 2.4±0.44 min, p<0.02): 7.2 ± 1.78 min
